# Target: T1, acetylcholinesterase from Electrophorus electricus (electric eel) (Electrophorus electricus, UniProt O42275)
# T1 construct: purchased Sigma-Aldrich C2888
# Assay: biochemical
# Settings: AChA, IC50 (anti-acetylcholinesterase activity), total extracts of C. officinalis flowers; mean ± SD of five experiments
# Method: For the further detailed studies, samples of the individual flavonoids previously isolated from C. officinalis flowers were used. The acetylcholinesterase inhibition assay was performed using a spectrophotometric method. […] Additionally minor flavonoids of C. officinalis flowers were included for analysis such as 3-O-(2′′-acetyl)-glucosides, 3-O-(2′′,6′′-di-acetyl)-glucosides, 3-O-(3′′-rhamnosyl)-glucosides, 3-O-(4′′-rhamnosyl)-glucosides and 3-O-rhamnosides (Figure 3).
# The acetylcholinesterase inhibition assay was performed using a spectrophotometric microplate assay. The reaction mixture consisted of 235.7 µL of 0.1 M phosphate buffer pH 7.4, 20 µL of a solution of acetylcholinesterase (final concentration 0.1 U/mL in 0.1 M phosphate buffer pH 7.4), 2.7 µL of test compound or plant extract solutions in dimethyl sulfoxide (DMSO). The controls contained the corresponding volume of DMSO of test compound solutions. The enzymatic reaction was initiated by the addition of 1.6 µL of α-naphthyl acetate solution in DMSO. After mixing for 90 s and incubation at 25 °C for 90 s, the reaction was stopped with 20 µL of a 5% solution of sodium dodecyl sulfate (SDS) in water. The color was developed with 20 µL of Fast Blue B salt solution (final concentration 0.17 mM in water). The method was realized in 96-well plates. The microplate was read by a Bio-Rad microplate reader Model 3550 UV. Enzyme activity and inhibition were quantified by determination of the absorbance at 600 nm after the formation of the purple-colored diazonium dye as a percentage. […] The percentage of inhibition was calculated relative to a control sample, for which the anti-acetylcholinesterase activity was assessed under identical conditions, but in the absence of the test compound, using the expression:% Inhibition = {[(ACE − AC) − (ATE − AT)]/(ACE − AC)} × 100% where ACE is the absorbance at 600 nm of the control sample with enzyme; AC is the absorbance at 600 nm of the control sample without enzyme; ATE is the absorbance at 600 nm of the test compound (or plant extract) with enzyme; AT is the absorbance at 600 nm of the test compound (or plant extract) without enzyme.
# T1 sequence (O42275 24-633): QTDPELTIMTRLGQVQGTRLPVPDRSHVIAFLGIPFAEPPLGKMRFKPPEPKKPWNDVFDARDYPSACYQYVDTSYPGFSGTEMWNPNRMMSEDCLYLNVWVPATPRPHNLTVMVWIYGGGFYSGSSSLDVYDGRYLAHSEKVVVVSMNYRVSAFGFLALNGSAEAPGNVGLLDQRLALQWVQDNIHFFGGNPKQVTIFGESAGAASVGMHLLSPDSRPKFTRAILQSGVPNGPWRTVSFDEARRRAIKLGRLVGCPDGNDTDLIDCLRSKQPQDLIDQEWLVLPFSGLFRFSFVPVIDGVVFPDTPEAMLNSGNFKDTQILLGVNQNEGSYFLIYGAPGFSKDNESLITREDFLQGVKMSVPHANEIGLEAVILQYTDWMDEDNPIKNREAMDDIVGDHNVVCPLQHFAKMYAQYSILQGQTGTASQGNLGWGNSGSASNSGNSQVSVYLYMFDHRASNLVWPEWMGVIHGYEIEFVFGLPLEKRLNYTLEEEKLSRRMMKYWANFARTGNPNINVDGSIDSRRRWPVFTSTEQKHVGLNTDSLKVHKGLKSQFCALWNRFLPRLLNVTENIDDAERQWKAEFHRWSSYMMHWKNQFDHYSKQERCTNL
row,SMILES,IC50
1,"CN(C)C(=O)Oc1cccc([N+](C)(C)C)c1 [neostigmine, neostigmine bromide, reference compound]",3.36 µM

# Same assay, conditions: Anti-acetylcholinesterase activity, IC50, individual flavonoids; mean ± SD of three experiments
row,SMILES,IC50
1,"O=c1c(O[C@@H]2O[C@H](CO)[C@@H](O)[C@H](O)[C@H]2O)c(-c2ccc(O)c(O)c2)oc2cc(O)cc(O)c12 [Quercetin 3-O-Glcp, quercetin-3-O-glucoside]",70.1 ± 1.82 µM
2,"CC1OC(Oc2c(-c3ccc(O)c(O)c3)oc3cc(O)cc(O)c3c2=O)C(O)C(O)C1O (stereo not shown) [Quercetin 3-O-Rhap, quercetin-3-O-rhamnoside]",48.8 ± 1.26 µM
3,"COc1cc(-c2oc3cc(O)cc(O)c3c(=O)c2O)ccc1O [Isorhamnetin, 3,5,7,4′-tetrahydroxy-3′-methoxyflavone]",24.2 ± 0.74 µM
4,"CN(C)C(=O)Oc1cccc([N+](C)(C)C)c1 [neostigmine, neostigmine bromide, reference compound]",3.37 µM
5,"C[C@@H]1O[C@@H](OC[C@H]2O[C@@H](Oc3c(-c4ccc(O)c(O)c4)oc4cc(O)cc(O)c4c3=O)[C@H](O)[C@@H](O)[C@@H]2O)[C@H](O)[C@H](O)[C@H]1O [Quercetin 3-O-(6″-Rhap)-Glcp, quercetin-3-O-rutinoside]",72.1 ± 2.04 µM

# Same assay, conditions: individual flavonoids; mean ± SD of three experiments; read-out: Anti-acetylcholinesterase activity, IC50
row,SMILES,IC50
1,"COc1cc(-c2oc3cc(O)cc(O)c3c(=O)c2OC2OC(COC(C)=O)C(O)C(O)C2OC(C)=O)ccc1O (stereo not shown) [Isorhamnetin 3-O-(2″,6″-di-Ac)-Glcp, isorhamnetin-3-O-(2′′,6′′-di-acetyl)-glucoside]",51.3 ± 1.53 µM
2,"COc1cc(-c2oc3cc(O)cc(O)c3c(=O)c2OC2OC(CO)C(O)C(O)C2OC2OC(C)C(O)C(O)C2O)ccc1O (stereo not shown) [Isorhamnetin 3-O-(2″-Rhap)-Glcp, isorhamnetin-3-O-(2′′-rhamnosyl)-glucoside]",94.3 ± 2.82 µM
3,"CC(=O)OCC1OC(Oc2c(-c3ccc(O)c(O)c3)oc3cc(O)cc(O)c3c2=O)C(OC(C)=O)C(O)C1O (stereo not shown) [Quercetin 3-O-(2″,6″-di-Ac)-Glcp, quercetin-3-O-(2′′,6′′-di-acetyl)-glucoside]",36.5 ± 1.02 µM
4,"CC1OC(OC2C(O)C(CO)OC(Oc3c(-c4ccc(O)c(O)c4)oc4cc(O)cc(O)c4c3=O)C2O)C(O)C(O)C1O (stereo not shown) [Quercetin 3-O-(3″-Rhap)-Glcp, quercetin-3-O-(3′′-rhamnosyl)-glucoside]",69.1 ± 1.84 µM
5,"COc1cc(-c2oc3cc(O)cc(O)c3c(=O)c2OC2OC(CO)C(O)C(O)C2OC(C)=O)ccc1O (stereo not shown) [Isorhamnetin 3-O-(2″-Ac)-Glcp, isorhamnetin-3-O-(2′′-acetyl)-glucoside]",70.9 ± 1.84 µM
6,"CC1OC(OC2C(CO)OC(Oc3c(-c4ccc(O)c(O)c4)oc4cc(O)cc(O)c4c3=O)C(O)C2O)C(O)C(O)C1O (stereo not shown) [Quercetin 3-O-(4″-Rhap)-Glcp, quercetin-3-O-(4′′-rhamnosyl)-glucoside]",70.3 ± 1.9 µM
7,"COc1cc(-c2oc3cc(O)cc(O)c3c(=O)c2OC2OC(COC(C)=O)C(O)C(O)C2O)ccc1O (stereo not shown) [Isorhamnetin 3-O-(6″-Ac)-Glcp, isorhamnetin-3-O-(6′′-acetyl)-glucoside]",68.2 ± 1.71 µM
8,"CC1OC(OCC2OC(Oc3c(-c4ccc(O)c(O)c4)oc4cc(O)cc(O)c4c3=O)C(OC3OC(C)C(O)C(O)C3O)C(O)C2O)C(O)C(O)C1O (stereo not shown) [Quercetin 3-O-(2″,6″-di-Rhap)-Glcp, quercetin-3-O-(2′′,6′′-di-rhamnosyl)-glucoside]",94.9 ± 2.65 µM
9,"CC(=O)OCC1OC(Oc2c(-c3ccc(O)c(O)c3)oc3cc(O)cc(O)c3c2=O)C(O)C(O)C1O (stereo not shown) [Quercetin 3-O-(6″-Ac)-Glcp, quercetin-3-O-(6′′-acetyl)-glucoside]",45.2 ± 1.12 µM
10,"COc1cc(-c2oc3cc(O)cc(O)c3c(=O)c2OC2OC(COC3OC(C)C(O)C(O)C3O)C(O)C(O)C2OC2OC(C)C(O)C(O)C2O)ccc1O (stereo not shown) [Isorhamnetin 3-O-(2″,6″-di-Rhap)-Glcp, isorhamnetin-3-O-(2′′,6′′-di-rhamnosyl)-glucoside]",98.5 ± 3.04 µM
11,"COc1cc(-c2oc3cc(O)cc(O)c3c(=O)c2OC2OC(C)C(O)C(O)C2O)ccc1O (stereo not shown) [Isorhamnetin 3-O-Rhap, isorhamnetin-3-O-rhamnoside]",74 ± 2.14 µM
12,"COc1cc(-c2oc3cc(O)cc(O)c3c(=O)c2OC2OC(CO)C(O)C(OC3OC(C)C(O)C(O)C3O)C2O)ccc1O (stereo not shown) [Isorhamnetin 3-O-(3″-Rhap)-Glcp, isorhamnetin-3-O-(3′′-rhamnosyl)-glucoside]",91.2 ± 2.73 µM
13,"COc1cc(-c2oc3cc(O)cc(O)c3c(=O)c2O[C@@H]2O[C@H](CO[C@@H]3O[C@@H](C)[C@H](O)[C@@H](O)[C@H]3O)[C@@H](O)[C@H](O)[C@H]2O)ccc1O [Isorhamnetin 3-O-(6″-Rhap)-Glcp, isorhamnetin-3-O-rutinoside]",97.3 ± 2.91 µM
14,"COc1cc(-c2oc3cc(O)cc(O)c3c(=O)c2OC2OC(CO)C(OC3OC(C)C(O)C(O)C3O)C(O)C2O)ccc1O (stereo not shown) [Isorhamnetin 3-O-(4″-Rhap)-Glcp, isorhamnetin-3-O-(4′′-rhamnosyl)-glucoside]",92.1 ± 2.85 µM
15,"CC(=O)OC1C(Oc2c(-c3ccc(O)c(O)c3)oc3cc(O)cc(O)c3c2=O)OC(CO)C(O)C1O (stereo not shown) [Quercetin 3-O-(2″-Ac)-Glcp, quercetin-3-O-(2′′-acetyl)-glucoside]",48 ± 1.2 µM
16,"CC1OC(OC2C(Oc3c(-c4ccc(O)c(O)c4)oc4cc(O)cc(O)c4c3=O)OC(CO)C(O)C2O)C(O)C(O)C1O (stereo not shown) [Quercetin 3-O-(2″-Rhap)-Glcp, quercetin-3-O-(2′′-rhamnosyl)-glucoside]",71.9 ± 1.94 µM
17,"CC1OC(OC2C(Oc3c(-c4ccc(O)c(O)c4)oc4cc(O)cc(O)c4c3=O)OC(C)C(O)C(O)C2O)C(O)C(O)C1O (stereo not shown) [Quercetin 3-O-(2″-Rhap)-Rhap, quercetin-3-O-(2′′-rhamnosyl)-rhamnoside]",67.9 ± 1.76 µM
18,"COc1cc(-c2oc3cc(O)cc(O)c3c(=O)c2OC2OC(CO)C(O)C(O)C2O)ccc1O (stereo not shown) [Isorhamnetin 3-O-Glcp, isorhamnetin-3-O-glucoside]",89 ± 2.49 µM

# Same assay, conditions: negative control
row,SMILES,"Anti-acetylcholinesterase activity of the negative control, in words"
1,"[Cl-].[Na+] [NaCl, reference compound]",inactive

# Source: publication PMC5578075 (International Journal of Molecular Sciences, 2017)
